From patent US8343539B2, “Compounds that bind α5β1 integrin and methods of use” (Regents of the University of Minnesota, priority 2006, dated 2013)
“Also recorded” adds a separate entry of the source. Primed or numbered codes have the meaning given here. Where no end group is shown, it is not given here. [ ]: non-standard residue; d: D form. (C16)2‑Glu‑C2″ = N-terminal tail: two C16 chains, glutamic acid linker, -(CH2)2- spacer; (C16)2‑Glu‑C2 = lipid tail; Abu = CC[C@H](N)C(=O)O

Tests used:
HUVECs [1] = assay: Actin cytoskeleton and focal adhesion staining; assay type: cell-based, human; settings: for Actin fibers and focal adhesion points: 12 hours
Description: Actin cytoskeleton and focal adhesion staining: Surface transferring, cell seeding, incubation, and fixing were done as described above. Staining for the actin cytoskeleton, focal adhesions, and nucleus of attached cells was done using the Actin Cytoskeleton and Focal Adhesion Staining Kit following the manufacturer's protocol (Chemicon Int.) and using 1:350 dilution for anti-vinculin antibody, 1:200 for the secondary antibody, approximately 1:1000 dilution (equivalent to 1 unit/surface) for TRITC-conjugated phalloidin and 1:1000 for DAPI. After washing, surfaces were mounted onto glass slides and stored at 4° C. protected from light. A confocal microscope (BIORAD Multiphoton Confocal 1024) was used for imaging.

integrin αvβ3 = target: T1, integrin αvβ3 (Homo sapiens, UniProt P05106+P06756); assay: Adhesion blocking with anti-integrin αvβ3 antibody (LM609); assay type: cell-based; settings: anti-αvβ3 antibody 20 μg/ml, 1 hour, HUVECs 249 cells/mm^2
T1 construct: HUVECs were prepared and counted as described in the cell adhesion protocol; endogenous in cells; host or cells: HUVEC (human umbilical vein endothelial cells)
Description: Adhesion blocking experiments: Blocking experiments were done using mouse anti-human integrin as (P1D6), β1 (P5D2), α5β1 (JBS5), and αvβ3 (LM609) monoclonal antibodies (Chemicon Int.). All surfaces were transferred to 24- or 12-well plates and pre-incubated in 0.1% BSA media as described above. HUVECs were prepared and counted as described in the cell adhesion protocol. Cells were blocked by mixing the cell suspension with the appropriate antibody in 0.1% BSA media, and incubating for 30 minutes at 37° C., 5% CO2 with constant agitation. Blocked cells were then released onto LB and FN surfaces and allowed to adhere for 1 hour at 37° C., 5% CO2. […] Following incubation, surfaces were washed, and adhered cells were quantified as described in the cell adhesion protocol.

HUVECs [2] = assay: HUVEC spreading on substrates (cell area); assay type: cell-based, human; settings: for HUVEC spreading (cell area): 1-24 hours; for HUVEC spreading, rank among surfaces: all times examined, 1-72 hours
Description: (§1) Cell spreading and fibronectin production experiments: Surface transferring, cell seeding, and incubation were done in the same manner as in the adhesion experiment, with a cell density of 497 cells/mm^2, and incubation times of 1, 12, 24, 48, and 72 hour. At the end of each incubation, the surfaces were removed, washed with […] of PBS, and fixed in 1 ml of 4% paraformaldehyde (Sigma) in PBS for 15 minutes at 37° C., 5% CO2. After washing with PBS, surfaces were first labeled for secreted fibronectin: surfaces were subjected to a blocking solution (0.1% BSA in PBS) for 30 minutes, incubated for 1 hour with a primary antibody specific for secreted fibronectin (mouse anti-human fibronectin (P1H11) monoclonal antibody (Chemicon Int.) at a 1:500 dilution in blocking solution, and then for 45 minutes with a secondary antibody (IgG fluorescein (FITC) conjugated antibody; Chemicon Int.) at a 1:200 dilution in PBS. As a final step, cell membranes and nuclei were stained using the Image-iT™ LIVE Plasma Membrane and Nuclear Labeling Kit following the manufacturer's protocol for labeling fixed cells (Molecular Probes). After final washing, surfaces were mounted onto glass slides and stored at 4° C. protected from light. An inverted fluorescent microscope (Nikon Eclipse TE200 with Pixcell II LCM) was used for imaging. Fibronectin production was assessed visually, by comparing 10-20 fluorescence images from two samples for each substrate (two independent experiments performed at different days). Cell spreading was quantified from two samples per substrate (two independent experiments performed at different days) by measuring cell area with the NIH imaging software.

HUVECs [3] = assay: Extracellular fibronectin production by HUVECs (Example 1); assay type: cell-based, human; settings: for Fibronectin production by adhered HUVECs: 12 and 24 hours; for Fibronectin secretion by adhered HUVECs: after 48 hours
Description: as §1

HUVECs [4] = assay: HUVEC adhesion on LB membranes of peptide-amphiphiles (Example 1); assay type: cell-based, human; settings: 1-72 hours, no serum
Excerpt: Surface preparation: Peptide-amphiphiles, listed in Table 1, were synthesized as described in the literature (Berndt et al., J. Am. Chem. Soc., 1995; 117:9515-9522). Langmuir-Blodgett (LB) membranes constructed from peptide-amphiphiles were deposited onto 15 mm mica disks as described elsewhere (Kokkoli et al., Langmuir, 2004; 20:2397-2404). Shortly before cell assays, the LB films were transferred into 24-well plates containing 1× phosphate buffered saline (PBS) solution (Mediatech), without exposing surfaces to air, as they rearrange to form multilayers (Hansma et al., Method. Cell Biol., 2002; 69:163-193). After equilibrating for 5-10 minutes, PBS was exchanged with 1 ml of MCDB-131 basal media (Sigma) supplemented with 0.1% bovine serum albumin (BSA) (Sigma) and antibiotics (Sigma) (2.5 μg/ml gentamicin, 2.5 μg/ml amphotericin B, 50 U/ml penicillin, and 50 μg/ml streptomycin), referred to as 0.1% BSA media. Surfaces were equilibrated at 37° C., 5% CO2 for 30-60 minutes before adding the cells. Human fibronectin-coated round coverslips (FN) 22 mm in diameter (BD Biosciences) were put into 12-well plates and 2 ml of 0.1% BSA media was added to each well. Surfaces were equilibrated for 30-60 minutes at 37° C., 5% CO2.
Cell culture: Human umbilical vein endothelial cells, HUVECs, (Cambrex Corporation) were cultured in MCDB-131 containing 20% fetal bovine serum (FBS) (Atlas Biologicals) at 37° C., 5% CO2. Other nutrients and antibiotics supplementing the media were added based on an optimal HUVEC proliferation study (Terramani et al., In Vitro Cell Dev. Biol.—Animal, 2000; 36:125-132). Media was changed in the culture flasks every other day. Cells used for adhesion and imaging studies were in passages 3-4.
Cell adhesion experiments: After cells became 90% confluent they were washed with PBS, trypsinized with 0.25% Trypsin-EDTA (Cambrex Corporation), neutralized with MCDB-131 with 2% FBS, and spun at 1000 rpm for 10 minutes. The supernatant was removed and the cell pellet was resuspended in 0.1% BSA media. Cells were counted with a hemocytometer and seeded onto LB and FN surfaces at a density of 497 cells/mm^2. Surfaces were incubated with cells in 0.1% BSA media at 37° C., 5% CO2, for 1, 4, 12, 24, 48, and 72 hours. Cell adhesion was quantified using the CyQuant Cell Proliferation Assay Kit, with a dye that binds to cellular nucleic acids, following the manufacturer's protocol (Molecular Probes). A calibration standard curve was created for each experiment. The plates were read on a SpectraMAX GeminiXS (Molecular Devices).

α5β1 integrin = α5β1 integrin (Homo sapiens, UniProt P05556+P08648); settings: inferred from literature on polyglycine linkers (Petrie 2006); cited from earlier work
HUVECs [5] = assay: HUVEC adhesion timed experiments on LB membranes (Example 2); assay type: cell-based, human; settings: for Maintenance / decay of HUVEC adhesion over time: up to 12 hours
Description: Surface preparation: Each peptide-amphiphile was used to form homogenous LB membranes as in previous work (Kokkoli Langmuir 2004; 20:2397-2404), except that both the water and 15 mm mica disks used had been autoclaved for sterility. All depositions were done at a surface pressure between 41 and 47 mN/m, well below the collapse pressure and in the liquid-condensed or solid phase. Approximately 90 minutes before cells were seeded on the LB films to begin cell adhesion experiments, mica surfaces were transferred into 1× phosphate buffered saline (PBS), with particular care taken to ensure films were not exposed to air. After 5-10 minutes of equilibration, surfaces were transferred into 24-well plates containing a supplemented MCDB-131 basal media (Sigma), as described in Example 1. Following surface transfer, 24-well plates were moved to a 37° C., 5% CO2 incubator for 45-60 minutes. As a control, 22 mm diameter human fibronectin-coated coverslips (BD Biosciences), referred to as FN, were put into 12-well plates, covered with 2 ml of the supplemented media, and also incubated for 45-60 minutes.
Cell culture: Human umbilical vein endothelial cells, HUVECs (Cambrex Corporation), were cultured as described previously (see Example 1). Only cells from passage 3 were used in all studies.
Cell adhesion experiments: Flasks of HUVECs with at least 90% confluency were washed with 1×PBS, trypsinized with 0.25% Trypsin-EDTA (Fisher Scientific), and neutralized with 2% fetal bovine serum in MCDB-131 basal media. The suspended cells from all flasks were placed in one 50 ml centrifuge tube and centrifuged at 1000 rpm for 5 minutes. The media was removed and the cell pellet was resuspended in the supplemented media described above. A hemocytometer was used to count the cells and then 497 cells/mm^2 were seeded onto both LB and FN surfaces. Surfaces were incubated with cells at 37° C., 5% CO2 for 1, 4, or 12 hours. Cell adhesion following these times was determined using the CyQuant cell proliferation assay kit (Molecular Probes), which measures the fluorescence of a cellular nucleic acid-binding dye using the SpectraMAX GeminiXS plate reader (Molecular Devices). Standard calibration curves were created within each experiment for both 12- and 24-well plates.

HUVECs [6] = assay: Fibronectin production staining (Example 2); assay type: cell-based, human; settings: 12 hours
Description: Fibronectin production staining: Surface preparation, transfer, and cellular work were all done as described in the previous methods. Only surfaces incubated with cells for 12 hours were stained. The staining protocol, involving a primary antibody for secreted fibronectin (Chemicon), a FITC-conjugated secondary antibody (Chemicon), and the Image-iT LIVE plasma membrane and nuclear labeling kit (Molecular Probes), was done as previously described in Example 1. A single photon confocal microscope (Olympus FluoView FV1000) was used for imaging. Two slides per substrate were prepared each during 2 separate experiments and each slide was imaged 2-4 times. The final images chosen were all taken from one experiment for consistency, but were representative of the images obtained from both experiments.

[7] = target: T2, mouse α5β1 integrin on CT26.WT cells (mouse, UniProt P11688 45-1053; P09055 21-798); assay: flow cytometry, PR_b stealth liposomes on CT26.WT cells, 4 °C, 3 hrs
T2 construct: whole, on cells; Endogenous on mouse colon carcinoma cells; also called integrin α5β1 expressing CT26.WT cells
Description: Tubes were incubated at 4° C. or 37° C. over a rotary shaker for the specified duration of time. Cells were then pelleted and washed twice in FB. Flow cytometric analysis was carried out immediately. For peptide blocking experiments, the protocol specified above was used except cells were incubated with 200 µg/ml of free peptide-amphiphile in FB for one hour prior to incubating the cells with the liposomes. […] All experiments were repeated twice but results are presented from a single experiment.

[8] = target: T2, mouse α5β1 integrin on CT26.WT cells; assay: flow cytometry, liposomes on CT26.WT cells, 4 °C, 3 hrs

T2 sequence (P11688 45-1053, chain 1 of 2): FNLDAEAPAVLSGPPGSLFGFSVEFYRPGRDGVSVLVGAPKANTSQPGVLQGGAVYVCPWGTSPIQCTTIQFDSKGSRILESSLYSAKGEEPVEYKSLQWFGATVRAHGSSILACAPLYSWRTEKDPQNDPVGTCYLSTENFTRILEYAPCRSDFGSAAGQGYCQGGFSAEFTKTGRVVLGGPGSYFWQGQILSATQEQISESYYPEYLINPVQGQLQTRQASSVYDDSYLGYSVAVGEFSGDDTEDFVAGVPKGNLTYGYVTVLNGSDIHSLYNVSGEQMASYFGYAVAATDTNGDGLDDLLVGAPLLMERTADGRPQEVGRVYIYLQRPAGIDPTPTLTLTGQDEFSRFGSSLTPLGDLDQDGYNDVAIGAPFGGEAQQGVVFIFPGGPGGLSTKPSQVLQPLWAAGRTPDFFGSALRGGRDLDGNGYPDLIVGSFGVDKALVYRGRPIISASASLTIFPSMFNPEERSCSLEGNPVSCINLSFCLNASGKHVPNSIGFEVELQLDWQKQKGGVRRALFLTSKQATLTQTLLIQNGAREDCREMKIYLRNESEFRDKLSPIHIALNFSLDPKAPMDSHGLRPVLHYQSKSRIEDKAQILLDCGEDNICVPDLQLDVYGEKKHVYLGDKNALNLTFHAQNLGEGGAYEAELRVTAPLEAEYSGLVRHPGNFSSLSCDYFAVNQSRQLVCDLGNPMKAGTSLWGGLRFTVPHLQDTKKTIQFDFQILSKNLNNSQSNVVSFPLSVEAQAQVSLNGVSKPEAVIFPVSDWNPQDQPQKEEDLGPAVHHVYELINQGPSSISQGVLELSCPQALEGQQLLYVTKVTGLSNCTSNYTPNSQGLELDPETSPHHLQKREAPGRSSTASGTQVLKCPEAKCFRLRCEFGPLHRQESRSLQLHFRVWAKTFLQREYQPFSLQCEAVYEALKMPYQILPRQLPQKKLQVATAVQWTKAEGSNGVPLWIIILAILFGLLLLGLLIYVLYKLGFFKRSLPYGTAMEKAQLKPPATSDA
T2 sequence (P09055 21-798, chain 2 of 2): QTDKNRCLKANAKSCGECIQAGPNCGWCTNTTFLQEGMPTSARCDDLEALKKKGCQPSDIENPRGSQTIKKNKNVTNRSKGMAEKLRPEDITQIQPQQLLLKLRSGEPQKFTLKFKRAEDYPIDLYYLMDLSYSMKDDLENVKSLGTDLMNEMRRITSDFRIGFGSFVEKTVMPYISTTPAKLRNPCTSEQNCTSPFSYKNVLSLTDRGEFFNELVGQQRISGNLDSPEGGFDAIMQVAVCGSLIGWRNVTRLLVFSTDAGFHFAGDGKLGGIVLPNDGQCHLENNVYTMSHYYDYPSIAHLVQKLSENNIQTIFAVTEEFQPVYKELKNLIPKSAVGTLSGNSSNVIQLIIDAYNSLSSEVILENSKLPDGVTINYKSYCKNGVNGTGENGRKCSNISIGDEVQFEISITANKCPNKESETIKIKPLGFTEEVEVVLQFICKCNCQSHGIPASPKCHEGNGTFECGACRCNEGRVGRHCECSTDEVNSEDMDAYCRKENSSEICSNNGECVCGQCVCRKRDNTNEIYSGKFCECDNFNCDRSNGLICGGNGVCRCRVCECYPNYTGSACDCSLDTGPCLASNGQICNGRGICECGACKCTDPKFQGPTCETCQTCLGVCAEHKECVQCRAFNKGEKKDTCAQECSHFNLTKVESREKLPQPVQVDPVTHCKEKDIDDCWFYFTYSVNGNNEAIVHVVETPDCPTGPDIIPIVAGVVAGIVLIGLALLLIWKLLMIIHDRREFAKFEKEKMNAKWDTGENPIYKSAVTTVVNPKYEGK
Sequence of α5β1 integrin (P08648 42-894 limits assumed): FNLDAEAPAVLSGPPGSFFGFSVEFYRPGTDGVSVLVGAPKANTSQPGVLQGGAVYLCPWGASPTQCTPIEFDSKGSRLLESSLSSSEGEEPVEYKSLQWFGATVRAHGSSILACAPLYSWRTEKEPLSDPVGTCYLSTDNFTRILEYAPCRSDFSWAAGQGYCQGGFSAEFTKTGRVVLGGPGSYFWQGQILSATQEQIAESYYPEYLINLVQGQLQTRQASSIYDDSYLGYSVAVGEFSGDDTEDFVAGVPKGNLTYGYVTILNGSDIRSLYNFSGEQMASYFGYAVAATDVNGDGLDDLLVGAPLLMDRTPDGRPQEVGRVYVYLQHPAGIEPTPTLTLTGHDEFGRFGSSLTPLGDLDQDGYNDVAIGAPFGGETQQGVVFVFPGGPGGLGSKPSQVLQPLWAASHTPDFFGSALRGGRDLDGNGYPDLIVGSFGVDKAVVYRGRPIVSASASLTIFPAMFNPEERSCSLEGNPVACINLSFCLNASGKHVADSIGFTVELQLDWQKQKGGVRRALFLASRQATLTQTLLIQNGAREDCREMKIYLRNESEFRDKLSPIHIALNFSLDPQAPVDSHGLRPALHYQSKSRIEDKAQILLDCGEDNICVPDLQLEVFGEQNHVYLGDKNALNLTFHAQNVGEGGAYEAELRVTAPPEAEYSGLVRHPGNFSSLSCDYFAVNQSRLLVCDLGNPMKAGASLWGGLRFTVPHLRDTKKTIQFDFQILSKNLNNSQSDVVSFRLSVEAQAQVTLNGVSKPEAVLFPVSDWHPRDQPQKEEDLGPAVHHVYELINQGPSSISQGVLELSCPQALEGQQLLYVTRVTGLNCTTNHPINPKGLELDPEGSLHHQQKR
Sequence of α5β1 integrin (P08648 895-1049 partner limits assumed): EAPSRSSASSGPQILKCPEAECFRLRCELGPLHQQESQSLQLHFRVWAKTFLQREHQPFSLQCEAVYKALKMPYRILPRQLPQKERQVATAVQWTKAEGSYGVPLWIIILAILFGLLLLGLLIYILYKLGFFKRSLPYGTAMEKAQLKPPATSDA
Sequence of α5β1 integrin (P05556 21-798): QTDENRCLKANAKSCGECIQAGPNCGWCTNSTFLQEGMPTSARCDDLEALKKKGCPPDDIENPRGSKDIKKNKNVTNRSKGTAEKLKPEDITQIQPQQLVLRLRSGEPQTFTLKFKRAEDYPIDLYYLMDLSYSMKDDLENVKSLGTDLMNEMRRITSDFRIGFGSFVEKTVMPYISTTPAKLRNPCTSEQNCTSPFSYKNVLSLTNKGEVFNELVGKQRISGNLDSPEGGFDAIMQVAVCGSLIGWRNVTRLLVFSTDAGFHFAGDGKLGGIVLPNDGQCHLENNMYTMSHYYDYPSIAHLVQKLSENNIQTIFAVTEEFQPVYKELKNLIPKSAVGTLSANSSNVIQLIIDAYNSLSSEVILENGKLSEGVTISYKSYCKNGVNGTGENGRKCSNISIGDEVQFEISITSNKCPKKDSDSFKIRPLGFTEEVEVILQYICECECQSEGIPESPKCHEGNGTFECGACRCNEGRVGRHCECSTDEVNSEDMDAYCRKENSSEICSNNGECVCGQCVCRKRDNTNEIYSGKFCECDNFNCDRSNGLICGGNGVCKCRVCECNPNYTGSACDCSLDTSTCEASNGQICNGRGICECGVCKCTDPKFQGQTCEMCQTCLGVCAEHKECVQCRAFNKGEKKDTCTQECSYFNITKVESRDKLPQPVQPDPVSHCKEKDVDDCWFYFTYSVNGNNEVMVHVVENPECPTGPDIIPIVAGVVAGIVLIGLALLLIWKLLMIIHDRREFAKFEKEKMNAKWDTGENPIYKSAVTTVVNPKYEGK

Molecule: (C16)2-Glu-C2-GRGDSP
- Focal adhesion contacts (vinculin) (HUVECs [1]): did not form strong focal adhesion contacts
- Actin fibers and focal adhesion points (HUVECs [1]): some actin fiber formation
- Actin organization (HUVECs [1]; 24 hours): actin organization became less pronounced
- reduction in cell adhesion compared to adhesion of non-blocked cells (integrin αvβ3): 75.99±1.51%
- HUVEC spreading (cell area) (HUVECs [2]): higher compared to GRGESP, but much smaller than FN
- Fibronectin production by adhered HUVECs (HUVECs [3]): significantly less compared to FN and PR_b
- Fibronectin secretion by adhered HUVECs (HUVECs [3]): minimal fibronectin secretion
- Ability of substrate to sustain HUVEC adhesion over time (HUVECs [4]): failed to sustain HUVEC adhesion after 48 hours; also recorded: failed to sustain cell adhesion after 48 hours

Molecule: (C16)2-Glu-C2-GRGESP ({(C16)2‑Glu‑C2}-GRGESP) [negative control peptide-amphiphile]
- Actin fibers and focal adhesion points (HUVECs [1]): no distinct actin fibers and very few focal adhesion points
- HUVEC spreading (cell area) (HUVECs [2]): smallest
- Fibronectin production by adhered HUVECs (HUVECs [3]): significantly less compared to FN and PR_b
- Fibronectin secretion by adhered HUVECs (HUVECs [3]): minimal fibronectin secretion
- Ability of substrate to sustain HUVEC adhesion over time (HUVECs [4]): failed to sustain cell adhesion after 48 hours

Molecule: (C16)2-Glu-C2-KSSPHSRNGGGGGGGGGGRGDSP ({(C16)2‑Glu‑C2}-KSSPHSRNGGGGGGGGGGRGDSP) [Pr_c]
- Specificity for the α5β1 integrin (α5β1 integrin): not specific to the α5β1 integrin
- HUVEC adhesion level (description) (HUVECs [5]; 1, 4 and 12 hours): high adhesion at 1 hour
- Maintenance / decay of HUVEC adhesion over time (HUVECs [5]): not maintained at longer time periods

Molecule: (C16)2-Glu-C2-KSSPHSRNSSSSSSSSSSRGDSP ({(C16)2‑Glu‑C2}-KSSPHSRNSSSSSSSSSSRGDSP) [Pr_d]
- HUVEC adhesion level (description) (HUVECs [5]; 1, 4 and 12 hours): good adhesion out to 4 hours
- Maintenance / decay of HUVEC adhesion over time (HUVECs [5]): extreme drop-off at 12 hours

Molecule: (C16)2-Glu-C2-PHSRNSGSGSGSGRGDSP ({(C16)2‑Glu‑C2}-PHSRNSGSGSGSGRGDSP) [PR_a]
- HUVEC spreading (cell area) (HUVECs [2]): mostly spread
- HUVEC spreading, rank among surfaces (HUVECs [2]): third
- HUVEC adhesion compared with FN (HUVECs [5]; 1 hour): no statistical difference
- HUVEC adhesion compared with FN (HUVECs [5]; 4 hours): no difference in adhesion
- HUVEC adhesion compared with FN (HUVECs [5]; 12 hours): statistically higher than FN
- Ability of substrate to sustain HUVEC adhesion over time (HUVECs [4]): effectively adhered

Molecule: (C16)2-Glu-C2-PHSRNSGSGSGSGSGRGDSP ({(C16)2‑Glu‑C2}-PHSRNSGSGSGSGSGRGDSP) [Pr_e]
- HUVEC adhesion compared with FN, overall (HUVECs [5]; 1, 4 and 12 hours): superior cell adhesion performance; also recorded: outperformed
- HUVEC adhesion compared with Pr_a, overall (HUVECs [5]; 1, 4 and 12 hours): superior cell adhesion performance; also recorded: outperformed
- HUVEC adhesion compared with FN (HUVECs [5]; 1 hour): higher HUVEC adhesion
- HUVEC adhesion compared with Pr_a (HUVECs [5]; 1 hour): higher HUVEC adhesion
- HUVEC adhesion compared with FN (HUVECs [5]; 4 hours): higher adhesion than FN
- HUVEC adhesion compared with Pr_a (HUVECs [5]; 4 hours): no statistical difference
- HUVEC adhesion compared with FN (HUVECs [5]; 12 hours): statistically higher than FN
- HUVEC adhesion compared with Pr_a (HUVECs [5]; 12 hours): not statistically different

Molecule: FN: Human fibronectin-coated round coverslips (BD Biosciences), positive control
- Actin stress fibers and focal contacts (HUVECs [1]; 1-72 hours): displayed actin stress fibers and focal contacts
- HUVEC spreading (cell area) (HUVECs [2]): mostly spread
- HUVEC spreading, rank among surfaces (HUVECs [2]): second
- Fibronectin secretion by adhered HUVECs (HUVECs [3]): fully covered with secreted fibronectin
- Fibronectin (ECM) production by adhered HUVECs (HUVECs [6]): allow both cell adhesion and ECM production; also recorded: allowed attached cells to produce fibronectin

B1: PR_b peptide-amphiphile (C16)2-Glu-C2-KSSPHSRNSGSGSGSGSGRGDSP (peptide)
peptide: {(C16)2‑Glu‑C2″}-KSSPHSRNSGSGSGSGSGRGDSP
- reduction of binding against stealth liposomes with about 2.5 mol % PR_b [7]: 10 fold
- increase of binding against 2.5 mol % GRGDSP low PEG2000 liposomes [8]: ~100 fold

B2: GRGDSP peptide-amphiphile (C16)2-Glu-C2-KAbuGRGDSPAbuK (peptide)
peptide: {(C16)2‑Glu‑C2}-K[Abu]GRGDSP[Abu]K
notes: also called GRGDSP-targeted liposomes; GRGDSP-functionalized liposomes
- binding result [8]: binds
